Assays:
Format in all cases: cell-based, human
[1] = system: PBMCs from healthy donors; experiment: γ-IFN release ELISPOT, PBMCs of healthy donors after short-term culture with peptides; settings: triplicate ELISPOT, ± SD
[2] = system: PBMCs from DLBCL patients; experiment: γ-IFN release ELISPOT, PBMCs of DLBCL patients after short-term culture with peptides; set-up: γ-IFN response to peptides: unit not given here; settings: for γ-IFN response to peptides: triplicate ELISPOT; for TH γ-IFN response to peptides at time of diagnosis and after one year: DLBCL patients (FIG. 5)
[3] = system: SUDHL-6 (DLBCL) cell line; experiment: 51Cr release cytolytic assay of peptide-specific CTL/TH cell lines; settings: PASD1-negative SUDHL-6; 18 h 51Cr release
Procedure: (§1) A conventional ^51Cr-labelling release assay was used to investigate the ability of CTL and TH cell lines generated from DLBCL patients to lyse PASD1-positive tumour target cells. The target cell lines, consisting of the OCI-Ly3, SUDHL-6, KM-H2 and Thiel, were radiolabelled with 100 μCi ^51Cr for 90 minutes. […] The incubation period of the TH with the target cells was increased to 18 hours. Maximum ^51Cr release was determined following the addition of 10% Triton-X to the radiolabelled target cells and spontaneous release was assessed by adding RPMI1640/FCS to the target cells. The supernatant was harvested and counted in a gamma-counter (Beckmann, Heidelberg, Germany).

[4] = system: Thiel (myeloma) cell line; experiment: as above; settings: PASD1-positive Thiel; 18 h 51Cr release
Procedure: as §1

[5] = system: OCI-Ly3 (DLBCL) cell line; experiment: as above; settings: PASD1-positive OCI-Ly3; 18 h 51Cr release
Procedure: as §1

[6] = Patient 1, De novo DLBCL, DRB1-0102, group Significant response, ± SD
[7] = Patient 2, De novo DLBCL, DRB1-0101, group Significant response, ± SD
[8] = Patient 3, De novo DLBCL, DRB1-0301, group Significant response, ± SD
[9] = Patient 4, De novo DLBCL, DRB1-0102, group Significant response, ± SD
[10] = Patient 8, De novo DLBCL, DRB1-1501, group Significant response, ± SD
[11] = Patient 9, De novo DLBCL, DRB1-0301, group Significant response, ± SD
[12] = Patient 10, De novo DLBCL, DRB1-0101, group No significant response, ± SD
[13] = Patient 12, De novo DLBCL, DRB1-0401, group Significant response, ± SD
[14] = Patient 15, De novo DLBCL, DRB1-1301, group No significant response, ± SD
[15] = Patient 17, De novo DLBCL, DRB1-0301, group No significant response, ± SD
[16] = Patient 18, De novo DLBCL, DRB1-0401, group No significant response, ± SD
[17] = Patient 19, De novo DLBCL, DRB1-1104, group No significant response, ± SD
[18] = Patient 20, De novo DLBCL, DRB1-1303, group No significant response, ± SD
[19] = Patient 21, De novo DLBCL, DRB1-0301, group No significant response, ± SD
[20] = Patient 24, De novo DLBCL, DRB1-1301, group Significant response, ± SD
[21] = Patient 28, Trans DLBCL, DRB1-0701, group No significant response, ± SD
[22] = Patient 37, Trans DLBCL, DRB1-0103, group Significant response, ± SD
[23] = Patient 48, T-cell rich DLBCL, DRB1-0301, group Significant response, ± SD
[24] = Patient 61, De novo DLBCL, DRB1-0401, group No significant response, ± SD
[25] = PBMCs from a DLBCL patient stimulated in culture with PASD1(6) or PASD1(7) peptides, +/− SD

Substance | γ-IFN response to peptides ([1]; Healthy donor HD 1, DRB1-0102) | γ-IFN response to peptides ([1]; Healthy donor HD 2, DRB1-0401) | γ-IFN response to peptides ([1]; Healthy donor HD 3, DRB1-0401) | γ-IFN response to peptides ([1]; Healthy donor HD 4, DRB1-0301) | γ-IFN response to peptides ([1]; Healthy donor HD 5, DRB1-0301) | γ-IFN response to peptides [2, 6] | γ-IFN response to peptides [2, 7] | γ-IFN response to peptides [2, 8] | γ-IFN response to peptides [2, 9] | γ-IFN response to peptides [2, 10] | γ-IFN response to peptides [2, 11] | γ-IFN response to peptides [2, 12] | γ-IFN response to peptides [2, 13] | γ-IFN response to peptides [2, 14] | γ-IFN response to peptides [2, 15] | γ-IFN response to peptides [2, 16] | γ-IFN response to peptides [2, 17] | γ-IFN response to peptides [2, 18] | γ-IFN response to peptides [2, 19] | γ-IFN response to peptides [2, 20] | further results
AENISSLLGHLPAEIVGKKL (listed as Homo sapiens) [PASD1(8)] | 18 ± 2 | 10 ± 2 | 6 ± 2 | 10 ± 2 | 10 ± 2 | 32 ± 3 | 36 ± 6 | 18 ± 2 | 28 ± 4 | 20 ± 4 | 12 ± 3 | 36 ± 4 | 24 ± 4 | 10 ± 1 | 14 ± 2 | 20 ± 2 | 24 ± 2 | 18 ± 2 | 14 ± 2 | 28 ± 4 | γ-IFN response to peptides [2, 21]: 16 ± 2; γ-IFN response to peptides [2, 22]: 16 ± 2; γ-IFN response to peptides [2, 23]: 40 ± 6; γ-IFN response to peptides [2, 24]: 12 ± 2
DESFRKYTAFTIPSMNNETP (Human immunodeficiency virus type 1) [HIV-1, control irrelevant peptide from HIV-1 reverse transcriptase used with the TH peptides, reference compound] | 8 ± 2 | 6 ± 2 | 1 ± 1 | 10 ± 2 | 8 ± 2 | 2 ± 1 | 16 ± 2 | 8 ± 2 | 14 ± 2 | 12 ± 4 | 4 ± 2 | 16 ± 4 | 12 ± 2 | 14 ± 4 | 10 ± 2 | 14 ± 2 | 12 ± 2 | 10 ± 2 | 10 ± 2 | 8 ± 2 | γ-IFN response to peptides [2, 21]: 6 ± 2; γ-IFN response to peptides [2, 22]: 16 ± 2; γ-IFN response to peptides [2, 23]: 12 ± 2; γ-IFN response to peptides [2, 24]: 12 ± 2
DYFNQVTLQLLDGFMITLST (listed as Homo sapiens) [PASD1(6)] | 14 ± 2 | 10 ± 2 | 5 ± 2 | 14 ± 2 | 24 ± 2 | 52 ± 6 | 32 ± 4 | 34 ± 4 | 58 ± 8 | 36 ± 6 | 22 ± 6 | 30 ± 8 | 44 ± 6 | 28 ± 4 | 20 ± 2 | 14 ± 2 | 22 ± 2 | 10 ± 2 | 18 ± 2 | 22 ± 4 | lysis by TH cell lines specific for the peptide [3]: no significant lysis; lysis by TH cell lines specific for the peptide [4]: Significant dose dependent lysis; lysis by TH cell lines specific for the peptide [5]: Significant dose dependent lysis; TH γ-IFN response to peptides at time of diagnosis and after one year ([2]; short term culture, p<0.05): significant; γ-IFN response to peptides [2, 25]: 32 +/− 2; γ-IFN response to peptides [2, 21]: 28 ± 4; γ-IFN response to peptides [2, 22]: 38 ± 4; γ-IFN response to peptides [2, 23]: 48 ± 4; γ-IFN response to peptides [2, 24]: 22 ± 2; immunogenicity among patients studied ([2]; TH γ-IFN response, DLBCL patients): immunogenic in the majority of patients; γ-IFN response to the PASD1(1) CTL peptide elicited by culture with the peptide ([2]; cells cultured 8-10 days with PASD1(6) or PASD1(7), Table 4): comparable; order of immunogenicity for eliciting TH cell responses ([2]; from γ-IFN release assay, order PASD1(6), PASD1(7), PASD1(10), PASD1(9), PASD1(8)): most immunogenic
NHPVRFLQAQPIVPVQRAAE (listed as Homo sapiens) [PASD1(10)] | 10 ± 2 | 4 ± 2 | 2 ± 1 | 18 ± 2 | 16 ± 2 | 40 ± 2 | 40 ± 4 | 32 ± 2 | 32 ± 4 | 18 ± 4 | 14 ± 2 | 32 ± 2 | 32 ± 4 | 18 ± 4 | 10 ± 4 | 22 ± 2 | 12 ± 2 | 16 ± 2 | 18 ± 2 | 16 ± 4 | γ-IFN response to peptides [2, 21]: 10 ± 2; γ-IFN response to peptides [2, 22]: 34 ± 2; γ-IFN response to peptides [2, 23]: 38 ± 2; γ-IFN response to peptides [2, 24]: 6 ± 2
ILKEPVHGV [HIV peptide, reference compound] |  |  |  |  |  |  |  |  |  |  |  |  |  |  |  |  |  |  |  |  | TH γ-IFN response to peptides at time of diagnosis and after one year ([2]; short term culture, p<0.05): No significant response; γ-IFN response to CTL peptides at time of diagnosis and after one year ([2]; HLA-A*0201-positive DLBCL patients (12 and 48, FIG. 2a), short term culture, p<0.05): No significant response
VGNVCILRTQLLQQLYTSKA (listed as Homo sapiens) [PASD1(9)] | 14 ± 2 | 1 ± 1 | 8 ± 2 | 19 ± 2 | 18 ± 2 | 30 ± 2 | 24 ± 2 | 24 ± 2 | 18 ± 2 | 18 ± 2 | 20 ± 2 | 10 ± 2 | 20 ± 4 | 8 ± 2 | 8 ± 2 | 24 ± 2 | 18 ± 2 | 8 ± 2 | 16 ± 2 | 26 ± 4 | γ-IFN response to peptides [2, 21]: 22 ± 4; γ-IFN response to peptides [2, 22]: 28 ± 2; γ-IFN response to peptides [2, 23]: 26 ± 2; γ-IFN response to peptides [2, 24]: 16 ± 2
phytohaemagglutinin [PHA, reference compound] | 86 ± 14 | 66 ± 10 | 46 ± 6 | 74 ± 16 | 63 ± 10 | 98 ± 15 | 106 ± 18 | 62 ± 8 | 98 ± 14 | 48 ± 4 | 118 ± 18 | 78 ± 8 | 72 ± 10 | 58 ± 6 | 54 ± 12 | 62 ± 12 | 58 ± 14 | 52 ± 10 | 102 ± 10 | 86 ± 14 | γ-IFN response to peptides [2, 25]: 48 +/− 2; γ-IFN response to peptides [2, 21]: 45 ± 8; γ-IFN response to peptides [2, 22]: 126 ± 22; γ-IFN response to peptides [2, 23]: 84 ± 10; γ-IFN response to peptides [2, 24]: 58 ± 10

Source: patent US8501908B2, “Immunogenic peptides” (priority 2008, dated 2013)
